Assay results: ChEMBL document CHEMBL5465560, “Selectivity Literature for EUbOPEN Chemogenomic Library” (2024)

Key:
[1] = molecular target: Atypical kinase COQ8A, mitochondrial (Homo sapiens, UniProt Q8NI60); assay: Selectivity interaction (KinomeScan (DiscoverX)) EUB0000666a ADCK3; conditions: at 10 µM
[2] = tested on: Tyrosine-protein kinase ABL1 (Homo sapiens), P00519 [E255K]; assay: (§1) Selectivity interaction (SelectScreen profiling (Invitrogen)) EUB0000607a ABL1; conditions: at 2 µM
[3] = tested on: Tyrosine-protein kinase ABL1 (Homo sapiens), P00519 [G250E]; assay: as §1; conditions: at 2 µM
[4] = tested on: Tyrosine-protein kinase ABL1 (Homo sapiens), P00519 [T315I]; assay: as §1; conditions: at 2 µM
[5] = tested on: Tyrosine-protein kinase ABL1 (Homo sapiens), P00519 [Y253F]; assay: as §1; conditions: at 2 µM
[6] = molecular target: Tyrosine-protein kinase ABL1 (Homo sapiens, UniProt P00519); assay: as §1; conditions: at 2 µM
[7] = molecular target: MAP kinase-activated protein kinase 2 (Homo sapiens, UniProt P49137)
[8] = molecular target: T1, Dual specificity mitogen-activated protein kinase kinase 5 (Homo sapiens) (UniProt Q13163); assay: Selectivity interaction (KinomeScan (DiscoverX)) EUB0001079a MAP2K5; conditions: at 1 µM
T1 sequence (whole entry): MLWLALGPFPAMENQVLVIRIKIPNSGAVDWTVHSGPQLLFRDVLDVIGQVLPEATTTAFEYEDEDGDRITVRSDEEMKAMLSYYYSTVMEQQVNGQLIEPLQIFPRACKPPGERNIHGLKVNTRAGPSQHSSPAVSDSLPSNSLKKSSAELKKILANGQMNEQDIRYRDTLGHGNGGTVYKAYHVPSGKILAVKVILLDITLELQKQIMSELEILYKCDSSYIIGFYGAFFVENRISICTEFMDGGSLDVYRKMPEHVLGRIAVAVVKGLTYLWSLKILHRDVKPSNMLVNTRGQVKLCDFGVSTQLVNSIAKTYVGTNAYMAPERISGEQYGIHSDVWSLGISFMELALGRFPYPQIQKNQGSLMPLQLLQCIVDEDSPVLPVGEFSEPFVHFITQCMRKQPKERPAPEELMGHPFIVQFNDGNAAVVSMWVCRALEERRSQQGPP

[9] = molecular target: T2, Dual specificity mitogen-activated protein kinase kinase 3 (Homo sapiens) (UniProt P46734); assay: Selectivity interaction (ActivX KiNativ screen (ex vivo kinase selectivity in human PBMCs)) EUB0001619a MAP2K3; assay type: cell-based; conditions: PBMC, at 1 µM
T2 sequence (whole entry): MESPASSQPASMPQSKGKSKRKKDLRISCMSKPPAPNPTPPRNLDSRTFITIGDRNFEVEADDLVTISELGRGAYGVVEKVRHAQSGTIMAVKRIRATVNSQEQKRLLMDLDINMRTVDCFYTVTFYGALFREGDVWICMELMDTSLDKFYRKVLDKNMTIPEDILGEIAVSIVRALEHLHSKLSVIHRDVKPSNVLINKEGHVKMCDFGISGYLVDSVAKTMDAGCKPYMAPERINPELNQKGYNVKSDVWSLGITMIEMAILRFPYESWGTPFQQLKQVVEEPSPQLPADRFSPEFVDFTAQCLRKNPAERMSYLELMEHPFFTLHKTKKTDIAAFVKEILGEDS

[10] = molecular target: T3, Mitogen-activated protein kinase kinase kinase 5 (Homo sapiens) (UniProt Q99683); assay: Selectivity interaction (ActivX KiNativ screen (ex vivo kinase selectivity in human PBMCs)) EUB0001619a MAP3K5; assay type: cell-based; conditions: PBMC, at 1 µM
T3 sequence (whole entry): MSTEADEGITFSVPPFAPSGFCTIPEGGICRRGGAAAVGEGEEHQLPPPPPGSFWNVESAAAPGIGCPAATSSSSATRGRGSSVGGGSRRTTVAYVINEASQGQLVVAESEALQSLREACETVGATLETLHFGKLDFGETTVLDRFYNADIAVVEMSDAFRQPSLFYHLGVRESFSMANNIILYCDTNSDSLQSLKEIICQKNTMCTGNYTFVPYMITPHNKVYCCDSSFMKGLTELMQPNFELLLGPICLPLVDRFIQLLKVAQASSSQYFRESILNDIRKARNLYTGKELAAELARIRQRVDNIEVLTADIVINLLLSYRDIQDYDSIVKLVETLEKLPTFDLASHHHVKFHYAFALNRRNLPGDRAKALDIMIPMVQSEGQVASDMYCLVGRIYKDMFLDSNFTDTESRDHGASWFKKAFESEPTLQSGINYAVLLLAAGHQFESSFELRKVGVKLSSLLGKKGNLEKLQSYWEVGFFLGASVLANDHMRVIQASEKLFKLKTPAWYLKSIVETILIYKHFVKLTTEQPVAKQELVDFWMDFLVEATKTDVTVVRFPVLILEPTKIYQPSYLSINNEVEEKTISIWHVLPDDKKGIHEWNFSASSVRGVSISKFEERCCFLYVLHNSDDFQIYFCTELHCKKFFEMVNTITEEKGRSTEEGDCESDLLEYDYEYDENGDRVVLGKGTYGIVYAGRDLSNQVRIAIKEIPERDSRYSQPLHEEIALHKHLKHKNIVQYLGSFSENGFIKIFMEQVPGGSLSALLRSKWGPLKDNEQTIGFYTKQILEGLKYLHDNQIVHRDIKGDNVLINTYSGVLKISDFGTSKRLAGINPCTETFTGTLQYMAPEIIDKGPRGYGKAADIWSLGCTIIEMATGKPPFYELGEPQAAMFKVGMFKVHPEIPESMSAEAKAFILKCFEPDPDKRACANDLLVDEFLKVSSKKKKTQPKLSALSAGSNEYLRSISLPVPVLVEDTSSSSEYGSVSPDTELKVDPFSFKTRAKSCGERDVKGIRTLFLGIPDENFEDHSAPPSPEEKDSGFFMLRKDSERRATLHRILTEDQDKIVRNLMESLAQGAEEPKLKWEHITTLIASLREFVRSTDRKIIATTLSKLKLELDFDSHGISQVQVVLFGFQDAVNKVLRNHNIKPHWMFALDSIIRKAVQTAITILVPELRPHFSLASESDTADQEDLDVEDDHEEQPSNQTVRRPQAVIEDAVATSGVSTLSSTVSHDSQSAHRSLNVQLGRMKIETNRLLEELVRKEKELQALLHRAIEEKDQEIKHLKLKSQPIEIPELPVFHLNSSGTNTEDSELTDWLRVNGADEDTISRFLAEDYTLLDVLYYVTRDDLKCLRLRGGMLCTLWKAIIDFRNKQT

Chain of MAP kinase-activated protein kinase 2 (P49137 whole entry): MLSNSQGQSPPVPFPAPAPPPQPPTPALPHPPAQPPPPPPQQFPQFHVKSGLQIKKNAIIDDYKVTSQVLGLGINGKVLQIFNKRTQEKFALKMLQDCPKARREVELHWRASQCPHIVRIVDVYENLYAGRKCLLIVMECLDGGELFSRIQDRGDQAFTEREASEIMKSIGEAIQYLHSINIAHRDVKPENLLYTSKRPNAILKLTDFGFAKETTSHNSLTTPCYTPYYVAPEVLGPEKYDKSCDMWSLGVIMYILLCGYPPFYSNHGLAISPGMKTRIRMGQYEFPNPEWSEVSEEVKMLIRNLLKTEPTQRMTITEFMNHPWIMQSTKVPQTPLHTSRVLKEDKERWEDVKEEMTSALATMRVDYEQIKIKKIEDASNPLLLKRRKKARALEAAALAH
Chain of Atypical kinase COQ8A, mitochondrial (Q8NI60 163-647 limits assumed): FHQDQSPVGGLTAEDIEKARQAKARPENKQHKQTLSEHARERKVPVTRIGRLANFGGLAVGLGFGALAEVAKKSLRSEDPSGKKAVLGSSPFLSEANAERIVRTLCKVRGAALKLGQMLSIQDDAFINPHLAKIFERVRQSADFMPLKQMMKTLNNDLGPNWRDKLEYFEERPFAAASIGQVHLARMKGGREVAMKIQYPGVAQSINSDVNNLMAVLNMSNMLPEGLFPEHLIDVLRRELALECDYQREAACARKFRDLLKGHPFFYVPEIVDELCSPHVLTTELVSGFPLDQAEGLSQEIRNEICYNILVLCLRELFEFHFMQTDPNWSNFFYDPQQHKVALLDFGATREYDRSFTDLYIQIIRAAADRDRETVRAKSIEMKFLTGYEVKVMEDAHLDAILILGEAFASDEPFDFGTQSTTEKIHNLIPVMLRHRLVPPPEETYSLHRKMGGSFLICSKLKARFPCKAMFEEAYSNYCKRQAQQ

**Q.** For O=C(NOC[C@H](O)CO)c1ccc(F)c(F)c1Nc1ccc(I)cc1F, which % of control [1] is on record?
**A.** Its % of control is 86%.

**Q.** How did the % of inhibition [2] turn out when CNC(=O)Nc1ccc(-c2nc(N3CC4CCC(C3)O4)c3cnn(C4CCC5(CC4)OCCO5)c3n2)cc1 was run?
**A.** The % of inhibition was 5%.

**Q.** What about the % of inhibition [3] of the same compound?
**A.** The % of inhibition was 3%.

**Q.** And the % of inhibition [4]?
**A.** The % of inhibition was 0%.

**Q.** What about the % of inhibition [5] of the same compound?
**A.** Its % of inhibition is 0%.

**Q.** What about the % of inhibition [6] of the same compound?
**A.** The % of inhibition was 4%.

**Q.** CCc1cccc(CC)c1NC(=O)c1nn(C)c2c1CCc1cnc(Nc3ccc(C(=O)NC4CCN(C)CC4)cc3OC(F)(F)F)nc1-2 was tested. Which IC50 [7] did it give?
**A.** The IC50 was greater than 10 µM.

**Q.** How did the % of control [8] turn out when Nc1cnc(N2CCc3cc(S(=O)(=O)Nc4c(F)cc(Cl)cc4F)cc(N4CCCC4=O)c32)nc1 [TP-020n] was run?
**A.** Its % of control is 84%.

**Q.** How did the % of inhibition [9] turn out when N#Cc1cccc(-c2c[nH]c3ncnc(N4CCOCC4)c23)c1 was run?
**A.** Its % of inhibition is 6%.

**Q.** And the % of inhibition [10]?
**A.** The % of inhibition was 21%.
